Assay results published in PMC10853753, “Structure Prediction and Genome Mining‐Aided Discovery of the Bacterial C‐Terminal Tryptophan Prenyltransferase PalQ” (Advanced Science, 2023).

Biological target: T1, PalQ (Paenibacillus alvei, UniProt A0ABT4H1V4)
T1 construct: gene M5X12_20665; homodimer by size exclusion chromatography
T1 sequence (A0ABT4H1V4 1-312): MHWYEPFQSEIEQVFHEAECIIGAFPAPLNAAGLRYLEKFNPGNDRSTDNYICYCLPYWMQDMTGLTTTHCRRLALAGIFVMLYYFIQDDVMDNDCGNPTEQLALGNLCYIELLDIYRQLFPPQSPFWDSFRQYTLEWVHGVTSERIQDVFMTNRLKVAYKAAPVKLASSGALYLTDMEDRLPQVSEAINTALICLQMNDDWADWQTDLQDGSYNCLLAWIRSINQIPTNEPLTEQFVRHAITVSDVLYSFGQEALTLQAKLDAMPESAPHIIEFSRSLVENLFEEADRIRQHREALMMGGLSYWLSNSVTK
Assay: prenylation kinetics, Michaelis-Menten curve
Assay type: biochemical
Conditions: acceptor PalX; curve without saturation, poor water solubility

SMILES | prenylation kinetics, Michaelis-Menten curve
CC(C)=CCC/C(C)=C/CC/C(C)=C/COP(=O)(O)OP(=O)(O)O [FPP] | We then assessed the kinetics of PalQ for DMAPP, GPP, and FPP.
CC(C)=CCC/C(C)=C/COP(=O)(O)OP(=O)(O)O [GPP] | We then assessed the kinetics of PalQ for DMAPP, GPP, and FPP.
